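Briefly, cells in 96-well plates were exposed to five compound concentrations for 48 h, and endpoints were estimated by linear interpolation. GI50 marks 50% less growth.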 Active and inactive are the calls of the source. No stated cut-off is given here; in the data, active = GI50 up to about 1.1 µM and inactive = higher.
Tests used:
Experiment in all cases: NCI tumour cell line growth inhibition, 48 h
RPMI-8226 = tested on: RPMI-8226
COLO 205 = tested on: COLO 205
T47D = tested on: T47D
LOX IMVI = tested on: LOX IMVI
U-251 = tested on: U-251
UACC-62 = tested on: UACC-62
EKVX = tested on: EKVX
A549 = tested on: A549
DU-145 = tested on: DU-145
ACHN = tested on: ACHN
UO-31 = tested on: UO-31
PC-3 = tested on: PC-3
HCC 2998 = tested on: HCC 2998
SK-OV-3 = tested on: SK-OV-3
NCI/ADR-RES = tested on: NCI/ADR-RES
MDA-N = tested on: MDA-N
SF-268 = tested on: SF-268
OVCAR-4 = tested on: OVCAR-4

Measured: GI50

COc1ccc(/N=C2\C(=O)Nc3ccc(Br)cc32)cc1
inactive: RPMI-8226 5.83 µM | COLO 205 15.7 µM | T47D 18.3 µM | LOX IMVI 10.1 µM | U-251 22.9 µM | UACC-62 4.89 µM | EKVX 17.2 µM | A549 24.2 µM | DU-145 32.3 µM | ACHN 15.4 µM | UO-31 9.82 µM | PC-3 25.3 µM | HCC 2998 19.2 µM | SK-OV-3 24.3 µM | NCI/ADR-RES 18.7 µM | MDA-N 13.9 µM | SF-268 18.4 µM

C#CCN(CC#C)C(=O)C(=O)c1c[nH]c2ccc(OC)cc12
inactive: RPMI-8226 10.6 µM | COLO 205 21.6 µM | T47D 24.2 µM | LOX IMVI 18.7 µM | U-251 14.4 µM | UACC-62 19.5 µM | EKVX 32.4 µM | A549 25.7 µM | DU-145 39.1 µM | ACHN 21.3 µM | UO-31 8.11 µM | HCC 2998 16.9 µM | OVCAR-4 > 10 µM | SK-OV-3 17.8 µM | NCI/ADR-RES 21.8 µM | SF-268 29.5 µM

CC(O)CNC1=CC(=O)C(=O)c2ccccc21 (stereo not given)
inactive: RPMI-8226 18.2 µM | COLO 205 7.64 µM | T47D 20.9 µM | LOX IMVI 15.9 µM | U-251 15.8 µM | UACC-62 12.9 µM | EKVX 18.6 µM | A549 19 µM | DU-145 15.5 µM | ACHN 18.5 µM | UO-31 17.7 µM | PC-3 22.3 µM | HCC 2998 11.7 µM | OVCAR-4 13.2 µM | SK-OV-3 34.5 µM | MDA-N 18.4 µM | SF-268 16 µM

COc1cc([C@@H]2c3cc4c(cc3[C@@H](OC(=O)c3ccc(N)cc3)C3COC(=O)[C@@H]32)OCO4)cc(OC)c1O (stereo not given in full)
inactive: RPMI-8226 7.8 µM | COLO 205 5.98 µM | LOX IMVI 10.6 µM | U-251 4.45 µM | UACC-62 4.91 µM | EKVX 20.2 µM | A549 5.02 µM | ACHN 7.74 µM | UO-31 10.2 µM | HCC 2998 12.2 µM | OVCAR-4 45.4 µM | SK-OV-3 3.2 µM | SF-268 9.59 µM

CCOC(=O)C(=CNc1ccc(S(N)(=O)=O)cc1)C(=O)OCC
inactive: RPMI-8226 > 100 µM | COLO 205 > 100 µM | T47D > 100 µM | LOX IMVI > 100 µM | U-251 > 100 µM | EKVX > 100 µM | A549 > 100 µM | DU-145 > 100 µM | ACHN > 100 µM | UO-31 > 100 µM | PC-3 > 100 µM | HCC 2998 > 100 µM | OVCAR-4 > 100 µM | SK-OV-3 > 100 µM | NCI/ADR-RES > 100 µM | MDA-N > 100 µM | SF-268 > 100 µM

O=c1[nH]c2c3ccccc3ccc2c2cc3c(cc12)OCO3
inactive: RPMI-8226 72.8 µM | COLO 205 > 100 µM | LOX IMVI > 100 µM | U-251 > 100 µM | UACC-62 > 100 µM | EKVX 49.2 µM | A549 75.9 µM | ACHN 69.3 µM | UO-31 39.4 µM | HCC 2998 > 100 µM | OVCAR-4 > 100 µM | SK-OV-3 > 100 µM | SF-268 98.6 µM

O=[PH]1c2ccccc2Nc2ccccc21
inactive: COLO 205 > 100 µM | T47D > 100 µM | LOX IMVI > 100 µM | U-251 > 100 µM | UACC-62 > 100 µM | EKVX 22.4 µM | A549 > 100 µM | DU-145 98.6 µM | ACHN > 100 µM | PC-3 47.1 µM | HCC 2998 > 100 µM | OVCAR-4 64.7 µM | SK-OV-3 > 100 µM | NCI/ADR-RES > 100 µM | MDA-N > 100 µM | SF-268 > 100 µM

CCOC(=O)CCCO
inactive: RPMI-8226 > 100 µM | LOX IMVI > 100 µM | U-251 > 100 µM | UACC-62 > 100 µM | EKVX > 100 µM | A549 > 100 µM | ACHN > 100 µM | UO-31 > 100 µM | HCC 2998 > 100 µM | SK-OV-3 > 100 µM | SF-268 > 100 µM

O=C1CC(c2c[nH]c3ccccc23)C(=O)N1c1ccccc1 (stereo not given)
inactive: RPMI-8226 > 100 µM | U-251 > 100 µM | UACC-62 > 100 µM | EKVX > 100 µM | A549 > 100 µM | ACHN > 100 µM | UO-31 83.6 µM | HCC 2998 > 100 µM | OVCAR-4 > 100 µM | SK-OV-3 > 100 µM

C=CCN1C2Cc3cc(OC)c(OC)cc3C1Cc1cc(OC)c(OC)cc12
inactive: RPMI-8226 > 100 µM | U-251 > 100 µM | EKVX > 100 µM | A549 > 100 µM | ACHN > 100 µM | UO-31 64 µM | HCC 2998 > 100 µM | OVCAR-4 > 100 µM | SF-268 > 100 µM

C1CCCN(NC2=NCCO2)CC1
inactive: RPMI-8226 > 100 µM | COLO 205 > 100 µM | T47D > 100 µM | LOX IMVI > 100 µM | U-251 > 100 µM | UACC-62 > 100 µM | EKVX > 100 µM | A549 > 100 µM | ACHN > 100 µM | UO-31 > 100 µM | PC-3 > 100 µM | HCC 2998 > 100 µM | OVCAR-4 > 100 µM | NCI/ADR-RES > 100 µM | MDA-N > 100 µM

CCCCCN(CCCCC)CC(C)(C)C(O)c1ccc(OC)c2ccccc12 (stereo not given)
inactive: RPMI-8226 4.15 µM | COLO 205 6.85 µM | T47D 4.56 µM | LOX IMVI 1.68 µM | U-251 9.46 µM | UACC-62 12.5 µM | EKVX 12.1 µM | A549 9.2 µM | DU-145 12.5 µM | ACHN 11.7 µM | UO-31 2.25 µM | PC-3 10.9 µM | HCC 2998 3.52 µM | OVCAR-4 11.1 µM | NCI/ADR-RES 7.05 µM | SF-268 13.3 µM

O=C(CC(C(=O)c1ccsc1)c1ccsc1)c1ccsc1 (stereo not given)
inactive: RPMI-8226 33.5 µM | COLO 205 > 100 µM | T47D 25.5 µM | LOX IMVI 79.8 µM | U-251 > 100 µM | UACC-62 74.8 µM | EKVX 75.2 µM | A549 68.5 µM | DU-145 > 100 µM | ACHN > 100 µM | UO-31 39.4 µM | PC-3 44 µM | HCC 2998 > 100 µM | OVCAR-4 62.1 µM | SK-OV-3 59.4 µM | NCI/ADR-RES 32.1 µM | SF-268 > 100 µM

Cc1cc(C(C)C)cc(=O)c(O)c1
inactive: RPMI-8226 > 100 µM | COLO 205 > 100 µM | LOX IMVI > 100 µM | U-251 > 100 µM | UACC-62 > 100 µM | EKVX > 100 µM | A549 > 100 µM | ACHN > 100 µM | UO-31 > 100 µM | HCC 2998 > 100 µM | OVCAR-4 > 100 µM | SK-OV-3 > 100 µM | SF-268 > 100 µM

From ChEMBL document CHEMBL1201862, “PubChem BioAssay data set” (2004)
